Assay results from the supplement of paper PMC10307832.

Columns and labels:
Experiment in all cases: relative viability (nuclei count vs DMSO), 5 days (fraction); higher = more cells survive
Gemcitabine + Navitoclax = compound: Nc1ccn([C@@H]2O[C@H](CO)[C@@H](O)C2(F)F)c(=O)n1 [Gemcitabine] + CC1(C)CCC(c2ccc(Cl)cc2)=C(CN2CCN(c3ccc(C(=O)NS(=O)(=O)c4ccc(N[C@H](CCN5CCOCC5)CSc5ccccc5)c(S(=O)(=O)C(F)(F)F)c4)cc3)CC2)C1 [Navitoclax] (partner 0.5 µM)
Summary of the method: (§1)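 Each reported value is a median over duplicate plates. It expresses relative viability: treated-well nuclei count divided by vehicle-well nuclei count. Lung cancer cell lines in 1536-well plates were dosed by pin tool a day after seeding, alone with one drug or with a fixed anchor-drug dose plus five library-drug doses (not always all listed) in √10 steps, and nuclei were counted after 5 days.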

Gemcitabine + Linsitinib = compound: Nc1ccn([C@@H]2O[C@H](CO)[C@@H](O)C2(F)F)c(=O)n1 [Gemcitabine] + C[C@]1(O)C[C@@H](c2nc(-c3ccc4ccc(-c5ccccc5)nc4c3)c3c(N)nccn32)C1 [Linsitinib] (partner 1 µM)
Summary of the method: as §1

Gemcitabine + Foretinib = compound: Nc1ccn([C@@H]2O[C@H](CO)[C@@H](O)C2(F)F)c(=O)n1 [Gemcitabine] + COc1cc2c(Oc3ccc(NC(=O)C4(C(=O)Nc5ccc(F)cc5)CC4)cc3F)ccnc2cc1OCCCN1CCOCC1 [Foretinib] (partner 0.25 µM)
Summary of the method: as §1

Gemcitabine + Luminespib = compound: Nc1ccn([C@@H]2O[C@H](CO)[C@@H](O)C2(F)F)c(=O)n1 [Gemcitabine] + CCNC(=O)c1noc(-c2cc(C(C)C)c(O)cc2O)c1-c1ccc(CN2CCOCC2)cc1 [Luminespib] (partner 0.01 µM)
Summary of the method: as §1

| Cell Line | relative viability (Gemcitabine + Navitoclax; first compound 0.001 µM) | relative viability (Gemcitabine + Navitoclax; first compound 0.003162 µM) | relative viability (Gemcitabine + Navitoclax; first compound 0.01 µM) | relative viability (Gemcitabine + Navitoclax; first compound 0.03162 µM) | relative viability (Gemcitabine + Navitoclax; first compound 0.1 µM) | relative viability (Gemcitabine + Linsitinib; first compound 0.001 µM) | relative viability (Gemcitabine + Linsitinib; first compound 0.003162 µM) | relative viability (Gemcitabine + Linsitinib; first compound 0.01 µM) | relative viability (Gemcitabine + Linsitinib; first compound 0.03162 µM) | relative viability (Gemcitabine + Linsitinib; first compound 0.1 µM) | relative viability (Gemcitabine + Foretinib; first compound 0.001 µM) | relative viability (Gemcitabine + Foretinib; first compound 0.003162 µM) | relative viability (Gemcitabine + Foretinib; first compound 0.01 µM) | relative viability (Gemcitabine + Foretinib; first compound 0.03162 µM) | relative viability (Gemcitabine + Foretinib; first compound 0.1 µM) | relative viability (Gemcitabine + Luminespib; first compound 0.001 µM) | relative viability (Gemcitabine + Luminespib; first compound 0.003162 µM) | relative viability (Gemcitabine + Luminespib; first compound 0.01 µM) | relative viability (Gemcitabine + Luminespib; first compound 0.03162 µM) | relative viability (Gemcitabine + Luminespib; first compound 0.1 µM) |
| --- | --- | --- | --- | --- | --- | --- | --- | --- | --- | --- | --- | --- | --- | --- | --- | --- | --- | --- | --- | --- |
| HCC-78 | 0.795 | 0.428 | 0.191 | 0.119 | 0.104 | 0.532 | 0.347 | 0.199 | 0.189 | 0.154 | 0.502 | 0.44 | 0.416 | 0.267 | 0.241 | – | – | – | – | – |
| HCC-366 | 1.03 | 1.01 | 0.656 | 0.014 | 0.0109 | 0.722 | 0.477 | 0.138 | 0.0302 | 0.0117 | 0.965 | 0.989 | 0.417 | 0.0476 | 0.0377 | – | – | – | – | – |
| HCC-827 | 0.967 | 0.815 | 0.557 | 0.357 | 0.224 | 0.96 | 0.79 | 0.546 | 0.327 | 0.252 | 1 | 0.865 | 0.565 | 0.332 | 0.177 | 0.777 | 0.365 | 0.386 | 0.259 | 0.16 |
| HOP-62 | 0.933 | 0.813 | 0.097 | 0.0507 | 0.0459 | 1.07 | 0.815 | 0.129 | 0.0627 | 0.056 | 1.01 | 0.965 | 0.306 | 0.103 | 0.0927 | 0.968 | 0.852 | 0.376 | 0.107 | 0.106 |
| IA-LM | 0.896 | 0.796 | 0.409 | 0.0336 | 0.0251 | 0.768 | 0.461 | 0.324 | 0.149 | 0.0467 | 1.07 | 0.916 | 1.11 | 0.0445 | 0.0363 | – | – | – | – | – |
| LC-2-ad | 0.431 | 0.4 | 0.236 | 0.118 | 0.0927 | 0.895 | 0.852 | 0.553 | 0.143 | 0.132 | 0.943 | 0.829 | 0.712 | 0.206 | 0.158 | 1.15 | 0.885 | 0.832 | 0.258 | 0.219 |
| LCLC-97TM1 | 0.379 | 0.182 | 0.0922 | 0.0774 | 0.106 | 0.147 | 0.159 | 0.117 | 0.104 | 0.136 | 0.886 | 0.832 | 0.597 | 0.136 | 0.118 | 0.813 | 0.86 | 0.334 | 0.202 | 0.129 |
| LCLC-103H | – | – | – | – | – | 1.02 | 1.21 | 0.998 | 0.76 | 0.509 | 0.78 | 0.853 | 0.663 | 0.348 | 0.233 | 0.956 | 1.01 | 0.845 | 0.314 | 0.183 |
| LK-2 | 0.822 | 0.732 | 0.444 | 0.222 | 0.203 | 0.6 | 0.485 | 0.433 | 0.196 | 0.156 | 1.16 | 1.13 | 0.808 | 0.276 | 0.18 | 0.186 | 0.245 | 0.173 | 0.178 | 0.164 |
